Marks after values point to notes of the source that are not given here.
Columns and labels:
Friend erythroblastosis [1] = assay: Subcutaneously inoculated Friend erythroblastosis growth; type: in vivo, mice
Description: The studies were conducted on male mice hybrid 100 BDF1 that were divided into groups containing 10 mice each. Lineal DBA2 mice were used for passaging FEB in vivo.
A strain of Friend erythroblastosis was obtained from the bank of tumor strains of the GU RCRC named after N. N. Blokhin of the RAMS. It was twice passaged intraperitoneally using generations 3-8 in subcutaneous inoculation. The inoculation was done using a cellular suspension of 1×10^6 cells in 0.3 ml […].
Solutions of the tested compounds were intra-gastrically daily administered to mice using a probe from day 3 to day 7 after tumor inoculation.
Therapeutic efficacy was assessed on the basis of tumor growth inhibition (TGI, %) and an average life span (ALS). Increase in life span was determined by the commonly accepted criterion T/C (%), which was calculated as a ratio between ALS in the test and control groups. Tumor growth rate Vt/V1 was calculated on the basis of change growth in average tumor volumes.

Friend erythroblastosis [2] = assay: Friend erythroblastosis, electronic microscopy of cell types; type: in vivo, mice
Description: (§1) Friend erythroblastosis which was inoculated subcutaneously to DBA2 female mice via spleen cells was investigated.
(§2) Group 2—Reaferon at dose 100 thousand IU/kg was administered daily s.c. from day 3 to day 7 after inoculation;
(§3) Group 3—Dicarbamine at a single dose 4.5 mg/kg was administered p.o. from day 3 to day 7 after inoculation;
(§4) Group 4—Dicarbamine and Reaferon were administered simultaneously according to a similar scheme.
(§5) Material for light microscopy was taken from sacrificed animals at days 3, 7 and 14 after termination of therapy or administration of a physiological saline. Material for electronic microscopy was taken at days 7 and 14.
For electronic microscopy, tumor pieces were fixed in a 2.5% glutaraldehyde solution and 1% osmium tetroxide and embedded in EPON-812. Semi-thin and ultra-thin slices were prepared on the LKB-III ultratome (Sweden). The obtained semi-thin slices were stained with Toluidine blue and examined through the light microscope. Ultra-thin slices were additionally stained with uranyl acetate and lead citrate; the slices examined and photographed in the JEOL 1200 EX-II electronic microscope (Japan).
The percentage of cells with different types of differentiation (blast cells, lymphocytes and granular leukocytes) was calculated during electronic microscopy for quantitative assessment.

Friend erythroblastosis [3] = assay: Friend erythroblastosis, histological examination; type: in vivo, mice
Description: as §1, §2, §3, §4, §5
For histological examination, tumor pieces were fixed in 10% neutral formalin and imbedded into paraffin; slices obtained were stained with hematoxylin-eosin and examined for glycogen (polysaccharide) content using the periodic acid Schiff reaction, for RNA content according to Brachet, and for lipids and iron. Slices were examined and photographed using a Polivar light microscope (Austria).
The percentage of mitoses and cells with apoptosis, as well as areas of necrosis, were assessed during histological examination.

M-6 melanoma = assay: Melanin genesis intensity in M-6 melanoma cells (electronic microscopy); type: in vivo, human; settings: for Average amount of melanosomes per a cell / MGII / Number of cells with melanosomes (per 500 cells): 1.0 mg/kg daily
Description: The study was conducted on 10-12 week old thymus free (nude) female Balb/C mice weighing 20-22 grams (breeding of the Russian Cancer Research Center (RCRC) named after N. N. Blokhin of the Russian Academy of Medical Sciences (RAMS)). A human melanoma strain earlier obtained from primary clinical material was taken from the bank of tumor strains of the RCRC of the RAMS for transplantation to thymus free “nude” mice. Tumor was disintegrated by Versen solution with vital Trypan blue staining and inoculated subcutaneously to mice in the amount of 1.6 million cells per mouse.
Dicarbamine was administered to mice intragastrically using a metal probe daily at dose 1.0 mg/kg beginning 4 days before the tumor inoculation and thereafter for 10-11 days (administration course up to 15 days). The mice were sacrificed with ether anesthesia in 12, 24 and 48 hours after the last administration.
The effect of Dicarbamine on melanoma cell differentiation was assessed on the basis of the intensity of melanin genesis by counting the number of cells with melanin in the tumor slices. With this goal, tumors were excised from the mice, placed into glutaraldehyde and histologically processed for electronic microscopy. The Melanin Genesis Intensity Index (MGII), which reflects the degree of cell differentiation, was calculated in the prepared slices according to the following equation: MGII=NCM×NM,
wherein: NCM is the number of cells containing melanosomes;
NM is average number of melanosomes per a cell.

[4] = 1.5 mg/kg daily for 5 days, day 8
[5] = 1.5 mg/kg daily for 5 days, day 13
[6] = 1.5 mg/kg daily for 5 days, day 19
[7] = 4.5 mg/kg daily for 5 days, day 8
[8] = 4.5 mg/kg daily for 5 days, day 13
[9] = 4.5 mg/kg daily for 5 days, day 19
[10] = Dicarbamine 4.5 mg/kg p.o. days 3-7

In the case of `O=C(O)CCCC(=O)NCCc1c[nH]cn1` [Dicarbamine], the “Relative tumor volumes Vt/V1 at days after tumor inoculation” value (Friend erythroblastosis [1]; [4]) is reported as 1.0, the Tumor growth inhibition (Friend erythroblastosis [1]; [4]) is reported as 61% and the “Relative tumor volumes Vt/V1” value (Friend erythroblastosis [1]; [5]) is reported as 1.56. The Tumor growth inhibition (Friend erythroblastosis [1]; [5]) was 78* %, the “Relative tumor volumes Vt/V1” value (Friend erythroblastosis [1]; [6]) was 3.0 and the Tumor growth inhibition (Friend erythroblastosis [1]; [6]) was 55%. For the same compound, the “Relative tumor volumes Vt/V1” value (Friend erythroblastosis [1]; [7]) was 1.0, the Tumor growth inhibition (Friend erythroblastosis [1]; [7]) was 62% and the “Relative tumor volumes Vt/V1” value (Friend erythroblastosis [1]; [8]) was 2.3. For the same compound, the Tumor growth inhibition (Friend erythroblastosis [1]; [8]) was 58%, the “Relative tumor volumes Vt/V1” value (Friend erythroblastosis [1]; [9]) was 3.76 and the Tumor growth inhibition (Friend erythroblastosis [1]; [9]) was 38%. The “decrease of the quantity of immature tumor cells vs control” value (Friend erythroblastosis [2]; Dicarbamine 4.5 mg/kg) was 15-20%, the “increase of the quantity of lymphocytes vs control” value (Friend erythroblastosis [2]; Dicarbamine 4.5 mg/kg) was 4 fold and the number of lymphocytes (Friend erythroblastosis [2]; Dicarbamine + Reaferon) was 18-25%. The “quantity of large blast type cells” value (Friend erythroblastosis [2]; Dicarbamine + Reaferon) was 70-80%, the “quantity of leukocytes (granular)” value (Friend erythroblastosis [2]; Dicarbamine + Reaferon) was 2-5% and the “quantity of granulocytes (granular leukocytes)” value (Friend erythroblastosis [2]; single agent) was 2-5%. The “quantity of lymphocytes (lymphoid cells)” value (Friend erythroblastosis [2]; single agent) was 18-25%, the “quantity of large blast type cells” value (Friend erythroblastosis [2]; single agent (Dicarbamine 4.5 mg/kg p.o. or Reaferon 100 thousand IU/kg s.c., days 3-7)) was 70-80% and the Apoptosis (Friend erythroblastosis [3]; Dicarbamine 4.5 mg/kg p.o. + Reaferon 100 thousand IU/kg s.c., day 3) was 0.2-0.5%. The “area of necrosis as compared to group I (control)” value (Friend erythroblastosis [3]; [10]) was “did not significantly change”, the “mitotic activity as compared to the control” value (Friend erythroblastosis [3]; [10]) was “remained within the limits of the control figures” and the “area of necrosis and mitotic activity as compared to group II (Reaferon)” value (Friend erythroblastosis [3]; Dicarbamine + Reaferon) was “did not show significant shifts”. For the same compound, the Apoptosis (Friend erythroblastosis [3]; Dicarbamine + Reaferon, days 7 and 14) was 0.5%, the “Average amount of melanosomes per a cell” value (M-6 melanoma; 12 hours since withdrawal) was 28.0 and the MGII (M-6 melanoma; 12 hours since withdrawal) was 9.8. The “Number of cells with melanosomes (per 500 cells)” value (“Number of cells … (per 500 cells)” for short) (M-6 melanoma; 12 hours since withdrawal) was 175.0, the “Average amount of melanosomes per a cell” value (M-6 melanoma; 24 hours since withdrawal) was 35.0 and the MGII (M-6 melanoma; 24 hours since withdrawal) was 14.7. The “Number of cells … (per 500 cells)” value (M-6 melanoma; 24 hours since withdrawal) was 210.0, the “Average amount of melanosomes per a cell” value (M-6 melanoma; 48 hours since withdrawal) was 42.0 and the MGII (M-6 melanoma; 48 hours since withdrawal) was 19.0. For the same compound, the “Number of cells … (per 500 cells)” value (M-6 melanoma; 48 hours since withdrawal) was 227.0, the “average increase of M-6 melanoma tumor cell differentiation degree (MGII)” value (M-6 melanoma; following a 15 day course) was 2.2 fold and the “increase in the number of cells comprising melanosomes” value (M-6 melanoma; following a 15 day course) was 1.3 fold. The “increase in the number of melanosomes” value (M-6 melanoma; following a 15 day course) was 1.3 fold, the “MGII index increase vs control” value (M-6 melanoma; in 12 hours) was 1.9 fold and the “MGII index increase vs control” value (M-6 melanoma; in 24 hours) was 2.4 fold. For the same compound, the “MGII index increase vs control” value (M-6 melanoma; in 48 hours) was 2.3 fold.

From patent US7759313B2, “Induction method for cell differentiation” (Obschetstvo S Ogranichennoi Otvetstvennostiyu …, priority 2002, dated 2010)
